One assay addresses T1, integrin α4β1 (Homo sapiens, UniProt P05556+P13612).
T1 construct: cell strain Jurkat (ATCC TIB-152) of human T cells, known to express integrin α4β1; endogenous in cells; host or cells: Jurkat (ATCC TIB-152), human T cells
Put plainly: Assessment of VCAM-1/α4β1 binding antagonist activity (Jurkat cells binding to VCAM-1). Particulars: Jurkat human T cells binding to recombinant human VCAM-1; read-out: integrin VCAM/α4 binding antagonistic activity (IC50) α4β1. It counts as cell-based. The procedure:
The capacity of a test substance antagonistic to the binding of cell strain Jurkat (ATCC TIB-152) of human T cells, known to express integrin α4β1, to VCAM-1 was determined.
(§1) 100 μl/well of a solution (500 ng/ml) of recombinant human VCAM-1 (R & D systems) solution diluted with buffer A (0.1 M NaHCO3, pH 9.6) was added to a micro titer plate having 96 wells (Nunc Maxisorp). After the incubation at 4° C. overnight, unbound VCAM-1 was removed by washing once with PBS. After completion of the washing, a buffer (buffer B) obtained by diluting Block Ace (Dainippon Pharmaceutical Co., Ltd.) with PBS to 1/4 concentration was added in an amount of 150 μl/well. After the incubation at room temperature for 1 hour, buffer B was removed and the plate was washed with PBS once.
Jurkat cells were washed with Dulbecco modified Eagle medium (SIGMA, hereinafter referred to as “DMEM”) twice and then incubated in DMEM containing 10 μg/ml of Calcein-AM (Wako Pure Chemical Industries, Ltd.) at 37° C. in dark place for 30 minutes to label with fluorescence. The cells were again suspended in a binding buffer (20 mM HEPES, DMEM containing 0.1% BSA).
(§2) 50 μl of a test substance of various concentrations obtained by the dilution with the binding buffer was added to the plate. Immediately thereafter, 50 μl (final volume: 100 μl/well) of the fluorescent Jurkat cells (4×10^6 cells/ml) were added thereto, and they were incubated in dark place at room temperature for 30 minutes. After the shaking on a plate shaker (IKA MTS-4) at 800 rpm for 30 seconds, the solution was immediately removed to remove the unbound cells. The fluorescence quantity of the bound cells remaining in the wells was determined with a fluorescent plate reader (Wallac 1420 ARVO multi-label counter) (filter excitation wave length: 485 nm, emission wave length: 535 nm). The fluorescent strength thus obtained is proportional to the number of Jurkat cells bound to VCAM-1 and remaining on the plate. The binding rate of each test material in various concentrations was determined while the fluorescent strength of the test material-free well was determined to be 100%.

Another assay has as its target T2, integrin α4β7 (Homo sapiens, UniProt P13612+P26010).
T2 construct: lymphoma cell strain RPMI-8866 of human B cells, known to express integrin α4β7; endogenous in cells; host or cells: RPMI-8866, human B-cell lymphoma line
T2 sequence (P13612 34-1032): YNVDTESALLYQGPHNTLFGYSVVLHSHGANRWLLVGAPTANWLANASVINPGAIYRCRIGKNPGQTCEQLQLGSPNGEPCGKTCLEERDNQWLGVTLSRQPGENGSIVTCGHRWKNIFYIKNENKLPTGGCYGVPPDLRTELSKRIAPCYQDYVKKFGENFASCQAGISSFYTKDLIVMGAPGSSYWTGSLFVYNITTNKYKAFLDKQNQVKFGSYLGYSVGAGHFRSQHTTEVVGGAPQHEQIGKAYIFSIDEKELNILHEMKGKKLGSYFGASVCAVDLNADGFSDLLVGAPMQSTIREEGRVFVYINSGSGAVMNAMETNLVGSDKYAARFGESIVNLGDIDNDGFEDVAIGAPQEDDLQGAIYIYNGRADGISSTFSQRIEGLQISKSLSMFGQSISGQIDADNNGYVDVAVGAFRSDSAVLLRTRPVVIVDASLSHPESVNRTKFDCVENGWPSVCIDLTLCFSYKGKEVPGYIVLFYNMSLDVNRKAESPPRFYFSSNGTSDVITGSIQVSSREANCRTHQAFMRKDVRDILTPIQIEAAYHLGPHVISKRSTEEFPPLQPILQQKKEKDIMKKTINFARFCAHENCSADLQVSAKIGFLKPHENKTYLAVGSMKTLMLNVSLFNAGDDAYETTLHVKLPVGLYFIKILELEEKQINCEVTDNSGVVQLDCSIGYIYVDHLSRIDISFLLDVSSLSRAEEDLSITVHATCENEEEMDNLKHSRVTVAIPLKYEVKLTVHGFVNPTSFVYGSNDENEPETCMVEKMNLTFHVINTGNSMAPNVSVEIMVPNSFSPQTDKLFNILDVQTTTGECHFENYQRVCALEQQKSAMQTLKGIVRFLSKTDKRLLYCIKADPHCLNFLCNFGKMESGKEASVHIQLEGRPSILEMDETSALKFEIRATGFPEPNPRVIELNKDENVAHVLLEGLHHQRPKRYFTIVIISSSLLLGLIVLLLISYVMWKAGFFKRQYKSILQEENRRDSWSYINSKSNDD
T2 sequence (P26010 20-798): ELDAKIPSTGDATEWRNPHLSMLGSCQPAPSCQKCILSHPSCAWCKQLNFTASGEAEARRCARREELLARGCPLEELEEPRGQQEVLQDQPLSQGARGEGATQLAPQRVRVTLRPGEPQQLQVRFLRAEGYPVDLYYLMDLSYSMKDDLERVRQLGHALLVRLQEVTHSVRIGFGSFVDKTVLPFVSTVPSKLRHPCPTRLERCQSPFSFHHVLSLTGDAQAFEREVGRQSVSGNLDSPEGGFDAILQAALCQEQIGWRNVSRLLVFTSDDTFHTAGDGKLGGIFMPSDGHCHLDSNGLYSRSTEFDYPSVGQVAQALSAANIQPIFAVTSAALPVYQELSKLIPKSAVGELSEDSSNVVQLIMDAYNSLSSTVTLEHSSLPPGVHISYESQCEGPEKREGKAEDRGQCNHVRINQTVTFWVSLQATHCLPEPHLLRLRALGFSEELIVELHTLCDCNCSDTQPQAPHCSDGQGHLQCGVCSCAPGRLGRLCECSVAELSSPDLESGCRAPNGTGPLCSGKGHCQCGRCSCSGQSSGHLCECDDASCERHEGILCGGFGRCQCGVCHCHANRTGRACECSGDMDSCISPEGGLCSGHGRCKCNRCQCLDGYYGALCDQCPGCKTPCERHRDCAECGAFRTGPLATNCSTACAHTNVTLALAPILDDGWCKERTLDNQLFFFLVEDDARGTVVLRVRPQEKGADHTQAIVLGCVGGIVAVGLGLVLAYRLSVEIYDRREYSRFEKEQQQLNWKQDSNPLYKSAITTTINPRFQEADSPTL
Put plainly: Assessment of VCAM-1/α4β7 binding antagonistic activity (RPMI-8866 cells binding to VCAM-1). Format: cell-based. Particulars: RPMI-8866 human B lymphoma cells binding to recombinant human VCAM-1, binding buffer with 4 mM MnCl2; read-out: integrin VCAM/α4 binding antagonistic activity (IC50) α4β7. The procedure: The capacity of a test substance antagonistic to the binding of lymphoma cell strain RPMI-8866 of human B cells, known to express integrin α4β7, to VCAM-1 was determined.
as §1
RPMI-8866 cells were washed with DMEM twice and incubated in Dulbecco modified Eagle medium containing 10 μg/ml of Calcein-AM (Wako Pure Chemical Industries, Ltd.) (SIGMA, hereinafter referred to as “DMEM”) in dark place at 37° C. for 30 minutes to label with fluorescence. The cells were again suspended in a binding buffer (20 mM HEPES, DMEM containing 0.1% BSA) containing 4 mM of MnCl2.
as §2, with “RPMI-8866” for “Jurkat”

T1 sequence (P05556 21-798, one chain of several): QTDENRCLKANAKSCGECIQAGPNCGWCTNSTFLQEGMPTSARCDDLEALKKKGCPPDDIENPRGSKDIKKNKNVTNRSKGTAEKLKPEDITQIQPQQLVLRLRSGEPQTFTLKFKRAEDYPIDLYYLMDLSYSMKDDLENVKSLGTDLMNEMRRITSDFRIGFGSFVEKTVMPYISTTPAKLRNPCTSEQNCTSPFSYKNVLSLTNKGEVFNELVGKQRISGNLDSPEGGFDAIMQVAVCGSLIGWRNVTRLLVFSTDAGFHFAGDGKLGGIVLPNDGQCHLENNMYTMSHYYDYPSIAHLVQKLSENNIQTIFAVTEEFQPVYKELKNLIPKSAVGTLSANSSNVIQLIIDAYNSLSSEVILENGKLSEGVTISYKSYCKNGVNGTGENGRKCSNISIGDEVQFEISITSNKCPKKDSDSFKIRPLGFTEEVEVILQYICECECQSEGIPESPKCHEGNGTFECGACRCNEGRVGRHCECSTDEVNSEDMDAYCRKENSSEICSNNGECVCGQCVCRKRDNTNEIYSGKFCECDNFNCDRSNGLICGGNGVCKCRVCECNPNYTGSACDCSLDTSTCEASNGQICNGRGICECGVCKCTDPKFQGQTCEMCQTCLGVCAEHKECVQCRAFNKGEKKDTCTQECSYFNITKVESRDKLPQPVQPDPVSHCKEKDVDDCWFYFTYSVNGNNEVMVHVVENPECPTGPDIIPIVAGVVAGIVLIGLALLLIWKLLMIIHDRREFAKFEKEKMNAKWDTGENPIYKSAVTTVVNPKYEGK

For the molecule `Cc1ccc(Cn2c(=O)n(-c3ccc(C[C@H](NC(=O)c4c(Cl)cccc4Cl)C(=O)O)cc3)c(=O)c3ccccc32)cc1` [compound 118], the IC50 at integrin α4β1 came to 385 nM; on integrin α4β7, 16 nM.
In the case of `Cn1c(=O)n(-c2ccc(C[C@H](NC(=O)c3c(Cl)cccc3Br)C(=O)O)cc2)c(=O)c2ccccc21` [compound 165], the IC50 at integrin α4β1 stood at 11 nM; at integrin α4β7, 0.6 nM.
On to `CCN(C)c1nc2ccccc2c(=O)n1-c1ccc(C[C@H](NC(=O)c2c(Cl)cccc2Cl)C(=O)O)cc1` [compound 129], for which the IC50 on integrin α4β1 stood at 2020 nM; on integrin α4β7 it was 76.4 nM.
As for `Cn1c(=O)n(-c2ccc(C[C@H](NC(=O)c3c(Cl)cccc3Cl)C(=O)O)cc2)c(=O)c2cc(N3CCCC3)ccc21` [compound 110], the IC50 came to 55 nM on integrin α4β1 and 4.1 nM at integrin α4β7.
Turning to `CCOc1nc2ccc(F)cc2c(=O)n1-c1ccc(C[C@H](NC(=O)c2c(Cl)cccc2Cl)C(=O)O)cc1` [compound 92], the IC50 stood at 1340 nM on integrin α4β1 and 5.7 nM at integrin α4β7.
In the case of `Cn1c(=O)n(-c2ccc(C[C@H](NC(=O)c3c(Cl)cncc3Cl)C(=O)O)cc2)c(=O)c2ccccc21` [compound 169], the IC50 on integrin α4β1 amounted to 6 nM; at integrin α4β7 it was 0.5 nM.
Regarding `O=C(N[C@@H](Cc1ccc(-n2c(=O)c3ccccc3n(Cc3ccccc3)c2=O)cc1)C(=O)O)c1c(Cl)cccc1Cl` [compound 122], the IC50 at integrin α4β1 amounted to 310 nM; at integrin α4β7, 0.6 nM.
Take `O=C(N[C@@H](Cc1ccc(-n2c(=O)c3ccccc3n(Cc3ccccc3Cl)c2=O)cc1)C(=O)O)c1c(Cl)cccc1Cl` [compound 119]: the IC50 at integrin α4β1 is 440 nM; at integrin α4β7 it was 21 nM.
Turning to `Cn1c(=O)n(-c2ccc(C[C@H](NC(=O)c3c(Cl)cccc3C(F)(F)F)C(=O)O)cc2)c(=O)c2ccccc21` [compound 164], the IC50 at integrin α4β1 came to 120 nM; at integrin α4β7 it was 7.1 nM.
The like results for `CCC(C)n1c(=O)n(-c2ccc(C[C@H](NC(=O)c3c(Cl)cccc3Cl)C(=O)O)cc2)c(=O)c2cc([N+](=O)[O-])ccc21` (some centres unmarked) [compound 58] were, in that order, 1070 nM and 31.6 nM.
Take `O=C(N[C@@H](Cc1ccc(-n2c(=O)[nH]c3c(Cl)ccc(Cl)c3c2=O)cc1)C(=O)O)c1c(Cl)cccc1Cl` [compound 76]: the IC50 at integrin α4β1 was determined as 192 nM; on integrin α4β7, 13 nM.
`CN1C(=O)N(c2ccc(C[C@H](NC(=O)c3c(Cl)cccc3Cl)C(=O)O)cc2)S(=O)(=O)c2ccc(C(F)(F)F)cc21` [compound 100]: the values for the IC50 at integrin α4β1 and at integrin α4β7 were 11 nM and 2.4 nM, respectively.
On to `COCC(=O)Nc1ccc2c(c1)c(=O)n(-c1ccc(C[C@H](NC(=O)c3c(Cl)cccc3Cl)C(=O)O)cc1)c(=O)n2C` [compound 105], for which the figures for the IC50 on integrin α4β1 and on integrin α4β7 were 14 nM and 0.8 nM, respectively.
